From patent US8183254B2, “Inhibitors of JNK” (Roche Palo Alto LLC, priority 2008, dated 2012)

Columns and labels:
[1] = target: Human JNK1α1 (Homo sapiens, UniProt P45983); assay: JNK assay in vitro (phosphorylation of GST-ATF2 with [γ-33P] ATP), JNK1; format: biochemical; conditions: Km concentrations of ATP and substrate
Procedure: (§1) JNK activity was measured by phosphorylation of GST-ATF2 (19-96) with [γ-^33P] ATP. […] Human JNK2α2 assay contains 1 nM enzyme, 1 μM ATF2, 8 μM ATP with 1 uCi [γ-^33P] ATP. Human JNK1α1 assay contains 2 nM enzyme, 1 μM ATF2, 6 μM ATP with 1 μCi [γ-^33P] ATP. Human JNK3 Upstate Biotech #14-501M) assay contains 2 nM enzyme, 1 μM ATF2, 4 μM ATP with 1 μCi [γ-^33P] ATP. The enzyme assay was carried out in the presence or absence of several compound concentrations. JNK and compound were pre-incubated for 10 min., followed by initiation of the enzymatic reaction by adding ATP and the substrate. The reaction mixture was incubated at 30° C. for 30 min. At the end of incubation, the reaction was terminated by transferring 25 μl of the reaction mixture to 150 μl of 10% glutathione Sepharose® slurry (Amersham # 27-4574-01) containing 135 mM EDTA. The reaction product was captured on the affinity resin, and washed on a filtration plate (Millipore, MABVNOB50) with phosphate buffered saline for six times to remove free radionucleotide. The incorporation of ^33P into ATF2 was quantified on a microplate scintillation counter (Packard Topcount). Compound inhibition potency on JNK was measured by IC50 value generated from ten concentration inhibition curves fitted into the 3-parameter model: % inhibition=Maximum/(1+(IC50/[Inhibitor])^slope). Data were analyzed on Microsoft Excel for parameter estimation.

[2] = target: Human JNK2α2 (Homo sapiens, UniProt P45984); assay: JNK assay in vitro (phosphorylation of GST-ATF2 with [γ-33P] ATP), JNK2; format: biochemical; conditions: Km concentrations of ATP and substrate
Human JNK2α2, sequence (P45984 whole entry): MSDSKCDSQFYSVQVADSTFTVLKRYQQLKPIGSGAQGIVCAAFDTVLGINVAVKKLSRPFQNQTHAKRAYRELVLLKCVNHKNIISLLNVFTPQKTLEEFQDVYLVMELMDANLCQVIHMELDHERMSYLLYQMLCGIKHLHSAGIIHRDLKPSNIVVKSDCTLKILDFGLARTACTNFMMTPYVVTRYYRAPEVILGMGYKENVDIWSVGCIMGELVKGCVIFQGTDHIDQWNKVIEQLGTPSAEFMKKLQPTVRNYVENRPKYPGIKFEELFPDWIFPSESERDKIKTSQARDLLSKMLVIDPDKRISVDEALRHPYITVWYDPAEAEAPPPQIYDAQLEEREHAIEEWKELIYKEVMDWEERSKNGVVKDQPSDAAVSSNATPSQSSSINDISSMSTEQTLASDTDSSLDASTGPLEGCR
Procedure: as §1

[3] = tested on: TNFα-induced IL-6 production; assay: Rat in vivo TNFα-induced IL-6 production assay; conditions: oral gavage 30 min prior to TNF-α challenge, plasma IL-6 90 min after challenge, female Wistar-Han rats
Procedure: Female Wistar-Han rats procured from Charles River Laboratories were allowed to acclimate for one week prior to use and achieve an approximate body weight of 101-130 g. Rats were administered test compound (N=8 per compound) via oral gavage 30 min prior to an intraperitoneal challenge of 0.5 μg recombinant rat TNF-α (Biosource). Blood was collected via cardiocentesis 90 min after TNF-α challenge. Plasma was prepared using lithium heparin separation tubes (BD microtainer) and frozen at −80° C. until analyzed. IL-6 levels were determined using a rat specific IL-6 ELISA kit (Biosource). The percent inhibition and ED50 values (calculated as the dose of compound at which […] is 50% of the control value) were determined.

Human JNK1α1, sequence (P45983 1-384 isoform P45983-2): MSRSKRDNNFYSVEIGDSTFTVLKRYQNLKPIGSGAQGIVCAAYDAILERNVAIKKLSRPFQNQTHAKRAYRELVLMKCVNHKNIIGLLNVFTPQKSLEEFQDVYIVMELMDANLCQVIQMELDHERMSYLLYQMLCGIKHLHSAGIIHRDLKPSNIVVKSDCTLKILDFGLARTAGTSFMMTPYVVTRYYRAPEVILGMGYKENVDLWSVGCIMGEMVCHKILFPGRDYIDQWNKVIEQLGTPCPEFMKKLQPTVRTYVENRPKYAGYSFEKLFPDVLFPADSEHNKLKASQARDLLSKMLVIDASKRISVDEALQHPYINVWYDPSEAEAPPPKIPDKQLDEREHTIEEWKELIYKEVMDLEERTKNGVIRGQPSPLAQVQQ

Compound	IC50 [1] [nM]	IC50 [2] [nM]	melting point [°C]	IL-6 Inhibition ([3]; dose 10 mg/Kg) [%]	IL-6 Inhibition ([3]; dose 30 mg/Kg) [%]
CN[C@H](C(=O)OC1CCN(C(=O)[C@H]2CC[C@H](Nc3nccc(-n4ccc5c(OCCCS(C)(=O)=O)cccc54)n3)CC2)CC1)C(C)C (stereo in doubt) [Compound I-15, (R)-3-Methyl-2-methylamino-butyric acid 1-(4-{4-[4-(3-methanesulfonyl-propoxy)-indol-1-yl]-pyrimidin-2-ylamino}-cyclohexanecarbonyl)-piperidin-4-yl ester]	10	40.5	105 to 107	–	–
C[C@H](N)C(=O)OC1CCN(C(=O)[C@H]2CC[C@H](Nc3nccc(-n4ccc5c(OCCCS(C)(=O)=O)cccc54)n3)CC2)CC1 [Compound I-1]	9.4	40.8	202.2 to 203.2	–	–
CC(C)(N)C(=O)OC1CCN(C(=O)[C@H]2CC[C@H](Nc3nccc(-n4ccc5c(OCCCS(C)(=O)=O)cccc54)n3)CC2)CC1 [Compound I-2, 2-Amino-2-methyl-propionic acid 1-(4-{4-[4-(3-methanesulfonyl-propoxy)-indol-1-yl]-pyrimidin-2-ylamino}-cyclohexanecarbonyl)-piperidin-4-yl ester]	6.8	34.7	219 to 220	–	–
CC[C@H](C)[C@H](N)C(=O)OC1CCN(C(=O)[C@H]2CC[C@H](Nc3nccc(-n4ccc5c(OCCCS(C)(=O)=O)cccc54)n3)CC2)CC1 [Compound I-4, (2S,3S)-2-Amino-3-methyl-pentanoic acid 1-(4-{4-[4-(3-methanesulfonyl-propoxy)-indol-1-yl]-pyrimidin-2-ylamino}-cyclohexanecarbonyl)-piperidin-4-yl ester]	11.6	51.9	137 to 138	–	–
CS(=O)(=O)CCCOc1cccc2c1ccn2-c1ccnc(N[C@H]2CC[C@H](C(=O)N3CCC(OC(=O)[C@@H]4CCCN4)CC3)CC2)n1 [Compound I-5, (S)-Pyrrolidine-2-carboxylic acid 1-(4-{4-[4-(3-methanesulfonyl-propoxy)-indol-1-yl]-pyrimidin-2-ylamino}-cyclohexanecarbonyl)-piperidin-4-yl ester]	7.4	27.4	147 to 148	–	–
CC(C)[C@H](N)C(=O)OC1CCN(C(=O)[C@H]2CC[C@H](Nc3nccc(-n4ccc5c(OCCCS(C)(=O)=O)cccc54)n3)CC2)CC1 [Compound I-6, (S)-2-Amino-3-methyl-butyric acid 1-(4-{4-[4-(3-methanesulfonyl-propoxy)-indol-1-yl]-pyrimidin-2-ylamino}-cyclohexanecarbonyl)-piperidin-4-yl ester]	10.5	40.2	163 to 164	–	–
CN1CCC[C@@H]1C(=O)OC1CCN(C(=O)[C@H]2CC[C@H](Nc3nccc(-n4ccc5c(OCCCS(C)(=O)=O)cccc54)n3)CC2)CC1 [Compound I-7, (R)-1-Methyl-pyrrolidine-2-carboxylic acid 1-(4-{4-[4-(3-methanesulfonyl-propoxy)-indol-1-yl]-pyrimidin-2-ylamino}-cyclohexanecarbonyl)-piperidin-4-yl ester]	15	55	127 to 128	–	–
CN(C)CC(=O)OC1CCN(C(=O)[C@H]2CC[C@H](Nc3nccc(-n4ccc5c(OCCCS(C)(=O)=O)cccc54)n3)CC2)CC1 [Compound I-8, Dimethylamino-acid acid 1-(4-{4-[4-(3-methanesulfonyl-propoxy)-indol-1-yl]-pyrimidin-2-ylamino}-cyclohexanecarbonyl)-piperidin-4-yl ester]	23.8	67.6	177 to 178	28.9	40.2
CN[C@@H](C)C(=O)OC1CCN(C(=O)[C@H]2CC[C@H](Nc3nccc(-n4ccc5c(OCCCS(C)(=O)=O)cccc54)n3)CC2)CC1 [Compound I-9, (S)-2-methylamino-propionic acid 1-(4-{4-[4-(3-methanesulfonyl-propoxy)-indol-1-yl]-pyrimidin-2-ylamino}-cyclohexanecarbonyl)-piperidin-4-yl ester]	15.3	50.9	182 to 183	28.1	49.1
CC[C@H](C)[C@@H](N)C(=O)OC1CCN(C(=O)[C@H]2CC[C@H](Nc3nccc(-n4ccc5c(OCCCS(C)(=O)=O)cccc54)n3)CC2)CC1 [Compound I-10, (2R,3S)-2-Amino-3-methyl-pentanoic acid 1-(4-{4-[4-(3-methanesulfonyl-propoxy)-indol-1-yl]-pyrimidin-2-ylamino}-cyclohexanecarbonyl)-piperidin-4-yl ester]	–	–	150 to 200	–	–
CC[C@@H](C)[C@@H](N)C(=O)OC1CCN(C(=O)[C@H]2CC[C@H](Nc3nccc(-n4ccc5c(OCCCS(C)(=O)=O)cccc54)n3)CC2)CC1 [Compound I-11, (2R,3R)-2-Amino-3-methyl-pentanoic acid 1-(4-{4-[4-(3-methanesulfonyl-propoxy)-indol-1-yl]-pyrimidin-2-ylamino}-cyclohexanecarbonyl)-piperidin-4-yl ester]	34.7	115	147 to 148	–	–
COP(=O)(OC)OC1CCN(C(=O)[C@H]2CC[C@H](Nc3nccc(-n4ccc5c(OCCCS(C)(=O)=O)cccc54)n3)CC2)CC1 [Compound I-12, Phosphoric acid 1-(4-{4-[4-(3-methanesulfonyl-propoxy)-indol-1-yl]-pyrimidin-2-ylamino}-cyclohexanecarbonyl)-piperidin-4-yl ester dimethyl ester]	48.1	162	135 to 136	–	–
CS(=O)(=O)CCCOc1cccc2c1ccn2-c1ccnc(N[C@H]2CC[C@H](C(=O)N3CCC(OP(=O)(O)O)CC3)CC2)n1 [Compound I-13]	10.8	56.8	201.3 to 208.8	–	–
CS(=O)(=O)CCCOc1cccc2c1ccn2-c1ccnc(N[C@H]2CC[C@H](C(=O)N3CCC(OC(=O)CCC(=O)O)CC3)CC2)n1 [Compound I-14]	27.9	67.9	214.2 to 217.7	–	–
CN1CCC[C@H]1C(=O)OC1CCN(C(=O)[C@H]2CC[C@H](Nc3nccc(-n4ccc5c(OCCCS(C)(=O)=O)cccc54)n3)CC2)CC1 [Compound I-27, (S)-1-Methyl-pyrrolidine-2-carboxylic acid 1-(4-{4-[4-(3-methanesulfonyl-propoxy)-indol-1-yl]-pyrimidin-2-ylamino}-cyclohexanecarbonyl)-piperidin-4-yl ester]	17.6	57.2	127 to 128	35.8	50.7
